Source: paper PMC7797525 (iScience, 2020)

Key:
RecA [1] = target: T1, RecA (Escherichia coli, UniProt P0A7G6); experiment: isothermal titration calorimetry; format: binding
T1 sequence (P0A7G6 2-353): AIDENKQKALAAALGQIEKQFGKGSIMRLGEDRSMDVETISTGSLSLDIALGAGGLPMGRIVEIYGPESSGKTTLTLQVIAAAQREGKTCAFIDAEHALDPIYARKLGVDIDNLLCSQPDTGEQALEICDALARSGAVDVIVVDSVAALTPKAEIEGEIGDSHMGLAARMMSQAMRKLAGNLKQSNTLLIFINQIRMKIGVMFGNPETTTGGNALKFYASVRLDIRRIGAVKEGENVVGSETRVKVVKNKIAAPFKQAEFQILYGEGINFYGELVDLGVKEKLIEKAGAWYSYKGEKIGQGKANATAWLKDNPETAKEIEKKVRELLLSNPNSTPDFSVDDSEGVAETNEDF

RecA [2] = target: T2, RecA (Escherichia coli, UniProt P0A7G6, Y104A); experiment: isothermal titration calorimetry; format: binding
T2 sequence (P0A7G6 2-353 Y104A): T1 sequence (P0A7G6 2-353)

Structure (SMILES)	Kd (RecA [1]) [µM]	Kd (RecA [2]) [µM]
Cc1cc(-c2ccc(/N=N/c3ccc4c(S(=O)(=O)O)cc(S(=O)(=O)O)c(N)c4c3O)c(C)c2)ccc1/N=N/c1ccc2c(S(=O)(=O)O)cc(S(=O)(=O)O)c(N)c2c1O [s06, Evans blue]	11.5	–
Cc1ccc(C(=O)Nc2ccc(S(=O)(=O)O)c3cc(S(=O)(=O)O)cc(S(=O)(=O)O)c23)cc1NC(=O)c1cccc(NC(=O)Nc2cccc(C(=O)Nc3cc(C(=O)Nc4ccc(S(=O)(=O)O)c5cc(S(=O)(=O)O)cc(S(=O)(=O)O)c45)ccc3C)c2)c1 [cpd01, suramin]	17.6	40.2
COc1cc(-c2ccc(N=Nc3ccc4c(S(=O)(=O)O)cc(S(=O)(=O)O)c(N)c4c3O)c(OC)c2)ccc1N=Nc1ccc2c(S(=O)(=O)O)cc(S(=O)(=O)O)c(N)c2c1O [s05, Chicago sky blue]	18.8	–
